{
  "source": "patent US20140294942A1",
  "about": "“ANTIVIRAL PEPTIDES EFFECTIVE AGAINST HEPATITIS C VIRUS” (THE REGENTS OF THE UNIVERSITY OF CALIFORNIA, priority 2011, published 2014)",
  "key": {"replicon": {"system": "replicon", "conditions": "reported in the literature, read-out: IC50 in Cell Culture; cited from earlier work"}, "[1]": {"conditions": "primer extension; reported in the literature; read-out: IC50 in in vitro Assays; cited from earlier work"}, "polymerase": {"target": "polymerase (Hepatitis C virus genotype 1a, UniProt P27958)", "sequence (P27958 2421-3011)": "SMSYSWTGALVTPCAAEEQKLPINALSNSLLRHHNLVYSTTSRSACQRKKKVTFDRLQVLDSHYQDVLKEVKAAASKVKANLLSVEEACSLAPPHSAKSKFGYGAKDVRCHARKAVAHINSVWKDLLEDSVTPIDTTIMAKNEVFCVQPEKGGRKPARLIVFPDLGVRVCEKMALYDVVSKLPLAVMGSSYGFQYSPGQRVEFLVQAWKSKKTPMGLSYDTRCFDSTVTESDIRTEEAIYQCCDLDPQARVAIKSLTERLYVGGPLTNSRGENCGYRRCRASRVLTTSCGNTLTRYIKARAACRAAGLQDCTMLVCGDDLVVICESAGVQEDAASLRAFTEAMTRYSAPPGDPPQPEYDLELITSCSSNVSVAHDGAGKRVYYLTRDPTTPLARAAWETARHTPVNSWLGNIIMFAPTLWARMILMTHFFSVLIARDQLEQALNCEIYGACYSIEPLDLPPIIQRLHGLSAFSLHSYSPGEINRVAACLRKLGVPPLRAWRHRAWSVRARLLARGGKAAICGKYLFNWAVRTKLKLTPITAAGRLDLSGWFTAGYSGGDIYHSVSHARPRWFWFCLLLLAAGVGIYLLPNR", "conditions": "polymerase assay; reported in the literature; read-out: IC50 in in vitro Assays; cited from earlier work"}, "[2]": {"system": "HCV Renilla reporter virus", "experimental": "(§1) Huh-7.5 cells were transfected with the indicated peptide construct and 48 hours later infected with the reporter virus for three hours. Cells were harvested 24 hours post infection, and Renilla activity was measured. All Renilla values were normalized to GFP transfection. […] Huh-7.5 cells were treated with the indicated concentrations of HCV4 or the arginine tag control peptide and immediately infected with the Renilla reporter virus for three hours. Cells were assayed 24 hours post infection for Renilla activity. ‘Percent protection’ refers to the percentage of decrease in Renilla levels compared with no peptide treatment.\npNRLFC was in vitro transcribed, and the purified RNA was electroporated into Huh-7.5 cells to generate infectious viral supernatant as previously described (Arumugaswami et al. (2008) PLoS Pathogens, 4: e1000182). Viral assays were done using the HCV reporter virus as described previously (Gonzalez et al. (2009) Hepatology50: 1756-1764).\n(§2) Two cysteine residues were added to each end to allow for disulfide bond formation and to achieve a conformation similar to the C34 hairpin. Also an arginine tag was added to the N-terminal cysteine to allow for efficient uptake by cells without any transfection reagent. Huh-7.5 cells were treated with concentrations of HCV4 peptide ranging from 100 μM to 10 pM in the HCVcc system and were immediately infected with the HCV Renilla reporter virus."}, "Huh-7.5 cells": {"system": "Huh-7.5 cells", "experimental": "as §1\nCell viability was determined using MTT Cell Proliferation assay (ATCC, 30-1010K).\nas §2"}, "[3]": {"system": "NS5A-augmented IRES-mediated translation", "assay": "Bicistronic HCV IRES reporter assay (Firefly/Renilla luciferase)", "assay_type": "cell-based, Hepatitis C virus", "conditions": "for effect of peptide treatment on NS5A-augmented IRES-mediated translation: cells treated with peptide and transfected with reporter construct and NS5A or GFP", "excerpt": "FIG. 5A: Schematic of the bicistronic reporter construct used to measure IRESmediated translation. Firefly luciferase (FLuc) and Renilla luciferase (RLuc) are driven by HCV IRES and a 5′ cap, respectively. Each reporter has a stop codon to allow independent expression. Firefly to Renilla ratios are used to follow changes in levels of IRES-mediated translation. For all experiments, the IRES reporter, either NS5A or GFP, and a peptide construct (if indicated) were transfected into cells.\n293T cells were transfected with HCV IRES reporter plasmid; either pMSCV5AFLAG or pMSCVGFP; and pCCL-CMV-IRES-EGFP plasmid expressing one of the following peptides: C34, NS5A domain II peptide, NS5A domain III peptide, NS3 peptide, or one of the C34 mutagenesis peptides. All transfections were done using Fugene 6 (Roche, 11814443001). 48 hours post transfection, Renilla and Firefly luciferase activity was determined using Dual Luciferase Assay System (Promega, E1910).\nAfter identifying the C-terminal region of NS5A as the HSP70 binding site in vitro, we sought to determine whether this region has any functional significance. NS5A has been reported to increase IRES-mediated translation in a cell culture-based bicistronic reporter system (He et al. (2003) J. General Virol., 84: 535-543) (FIG. 5A). This reporter system consists of the Firefly luciferase open reading frame (ORF) driven by HCV IRES and Renilla luciferase ORF under the control of a 5′ cap (FIG. 5A). The ratio of Firefly to Renilla luciferase activity can be used to measure the levels of IRES-mediated translation. The C-terminal 34 amino acid peptide corresponding to amino acids 165-198 of NSSA domain I (hereafter referred to as C34) was tested for its effect on altering IRES-mediated translation. […]\nWe also assessed the impact of the HCV4 peptide on NS5A-augmented IRES-mediated translation. […]"}, "[4]": {"system": "NS5A-augmented IRES-mediated translation", "conditions": "previously shown (Gonzalez et al. 2009); cited from earlier work"}, "HCV": {"system": "HCV", "conditions": "previously shown (Gonzalez et al. 2009); cited from earlier work"}, "protease": {"target": "protease (Hepatitis C virus genotype 1a, UniProt P27958)", "sequence (P27958 1027-1657 limits assumed)": "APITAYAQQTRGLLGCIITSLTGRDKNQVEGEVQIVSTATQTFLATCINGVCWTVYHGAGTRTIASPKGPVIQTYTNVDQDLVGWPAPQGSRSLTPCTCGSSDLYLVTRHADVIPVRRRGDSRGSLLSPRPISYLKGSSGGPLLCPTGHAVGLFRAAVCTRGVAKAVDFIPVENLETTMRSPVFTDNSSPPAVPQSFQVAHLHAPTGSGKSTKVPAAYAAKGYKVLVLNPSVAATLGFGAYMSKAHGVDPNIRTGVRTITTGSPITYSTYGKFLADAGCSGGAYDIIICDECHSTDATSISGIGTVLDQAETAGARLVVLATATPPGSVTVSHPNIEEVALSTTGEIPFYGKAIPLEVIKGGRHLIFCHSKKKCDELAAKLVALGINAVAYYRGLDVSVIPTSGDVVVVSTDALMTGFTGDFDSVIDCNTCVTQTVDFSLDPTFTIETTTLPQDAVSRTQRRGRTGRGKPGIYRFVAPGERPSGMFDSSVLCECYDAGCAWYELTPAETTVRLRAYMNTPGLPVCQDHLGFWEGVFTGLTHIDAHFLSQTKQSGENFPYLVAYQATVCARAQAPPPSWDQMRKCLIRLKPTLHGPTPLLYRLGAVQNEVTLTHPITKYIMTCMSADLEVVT", "sequence (P27958 1658-1711 partner limits assumed)": "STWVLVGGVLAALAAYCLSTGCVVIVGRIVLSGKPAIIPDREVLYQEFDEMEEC", "conditions": "protease assay; reported in the literature; read-out: IC50 in in vitro Assays; cited from earlier work"}},
  "note": "“Also recorded” adds a separate entry of the source. Where two headings read alike, the source gives them in different places. Bridge positions count the residues as written; N and C are the ends. Square brackets hold non-standard residues; d marks the D form. Peptide text beside a SMILES is read from it. Cha = N[C@@H](CC1CCCCC1)C(=O)O; Ahx = NCCCCCC(=O)O",
  "data": [
    {"compound": "C=C[C@@H]1C[C@]1(NC(=O)[C@@H]1C[C@@H](Oc2cc(-c3csc(NC(=O)C(C)C)n3)nc3c(Br)c(OC)ccc23)CN1C(=O)[C@@H](NC(=O)OC1CCCC1)C(C)(C)C)C(=O)O", "note": "[Bl 201335]", "values": [
      {"measurement": "IC50", "setting": "replicon", "value": "3.1 to 50", "unit": "nM"}
    ]},
    {"compound": "CCc1cc(CC[C@]2(C3CCCC3)CC(O)=C(Cc3nc4nc(C)cc(C)n4n3)C(=O)O2)cc(CC)n1", "note": "[Filibuvir]", "values": [
      {"measurement": "IC50", "setting": "[1]", "value": 50, "unit": "nM"}
    ]},
    {"compound": "Fc1ccccc1-c1nc2ccn(Cc3ccc(-c4ccc(C(F)(F)F)cc4C(F)(F)F)nn3)cc-2n1", "note": "[GS-9190, Tegobuvir]", "values": [
      {"measurement": "IC50", "setting": "polymerase", "value": "> 71000", "unit": "nM"}
    ]},
    {"compound": "CC(C)[C@@H]1NC(=O)[C@H](CCCNC(=N)N)NC(=O)[C@H](Cc2ccccc2)NC(=O)[C@H](CO)NC(=O)[C@@H](NC(=O)CCCCCNC(=O)CCCCCNC(=O)[C@H](CCCNC(=N)N)NC(=O)CCCCCNC(=O)[C@H](CCCNC(=N)N)NC(=O)CCCCCNC(=O)[C@H](CCCNC(=N)N)NC(=O)CCCCCNC(=O)[C@H](CCCNC(=N)N)NC(=O)CCCCCNC(=O)[C@H](CCCNC(=N)N)NC(=O)CCCCCNC(=O)[C@H](CCCNC(=N)N)NC(=O)CCCCCNC(=O)[C@@H](N)CCCNC(=N)N)CSSC[C@@H](C(N)=O)NC(=O)[C@@H]2CCCN2C(=O)[C@H](Cc2ccc(O)cc2)NC(=O)[C@H](CCC(=O)O)NC(=O)[C@H](Cc2c[nH]cn2)NC(=O)[C@H](CC2CCCCC2)NC(=O)[C@H]2CCCN2C1=O", "note": "[HCV4, Arg-(Ahx-Arg)6-Ahx-Ahx-Cys-Ser-Phe-Arg-Val-(D)Pro-Cha-His-Glu-Tyr-Pro-Cys] (H-R[Ahx]R[Ahx]R[Ahx]R[Ahx]R[Ahx]R[Ahx]R[Ahx][Ahx]CSFRV[dP][Cha]HEYPC-NH2; disulfide 16-27; N-terminus assumed)", "values": [
      {"measurement": "IC50", "setting": "[2]; read-out: IC50 in Cell Culture, reporter virus", "value": 0.542, "unit": "nM"},
      {"measurement": "IC50", "setting": "[2]; read-out: estimated IC50, intracellular viral protein production, Huh-7.5 cells treated with peptide 100 μM to 10 pM, immediately infected with HCV Renilla reporter virus, Renilla activity 24 hours post infection", "value": "~0.5", "unit": "nM"},
      {"measurement": "MTT toxicity", "setting": "Huh-7.5 cells; 10 μM", "value": "slight toxicity"},
      {"measurement": "MTT toxicity", "setting": "Huh-7.5 cells; 100 μM", "value": "toxicity"},
      {"measurement": "MTT toxicity", "setting": "Huh-7.5 cells; any concentration lower than 10 μM", "value": "no cytotoxicity"},
      {"measurement": "effect of peptide treatment on NS5A-augmented IRES-mediated translation", "setting": "[3]", "value": "blocks"}
    ]},
    {"compound": "CC(C)(C)OC(=O)N[C@H]1CCCCC/C=C\\[C@@H]2C[C@@]2(C(=O)NS(=O)(=O)C2CC2)NC(=O)[C@@H]2C[C@@H](OC(=O)N3Cc4cccc(F)c4C3)CN2C1=O", "note": "[ITMN-191, Da noprevir]", "values": [
      {"measurement": "IC50", "setting": "replicon", "value": 1.8, "unit": "nM"}
    ]},
    {"compound": "CC[C@@H]1C[C@]1(NC(=O)[C@@H]1C[C@@H]2CN1C(=O)[C@H](C(C)(C)C)NC(=O)OCC(C)(C)CCCCc1cccc3c1CN(C3)C(=O)O2)C(=O)NS(=O)(=O)C1CC1", "note": "[MK-7009, Vaniprevir]", "values": [
      {"measurement": "IC50", "setting": "replicon", "value": "5 to 15", "unit": "nM"}
    ]},
    {"compound": "O=c1c(O)c(-c2ccc(O)c(O)c2)oc2cc(O)cc(O)c12", "note": "[Quercetin]", "values": [
      {"measurement": "effect on NS5A-augmented IRES-mediated translation", "setting": "[4]", "value": "blocked"},
      {"measurement": "effect on virus production", "setting": "HCV", "value": "blocked"}
    ]},
    {"compound": "CC(C)C(=O)OC[C@H]1O[C@@H](n2ccc(N)nc2=O)[C@](C)(F)[C@@H]1OC(=O)C(C)C", "note": "[R7128 (PSI-6130)]", "values": [
      {"measurement": "IC50", "setting": "replicon", "value": 600, "unit": "nM"}
    ]},
    {"compound": "C/C=C/C[C@@H](C)[C@@H](O)[C@H]1C(=O)N[C@@H](CC)C(=O)N(C)[C@H](SCCN(C)C)C(=O)N(C)[C@@H](CC(C)(C)O)C(=O)N[C@@H](C(C)C)C(=O)N(C)[C@@H](CC(C)C)C(=O)N[C@@H](C)C(=O)N[C@H](C)C(=O)N(C)[C@@H](CC(C)C)C(=O)N(C)[C@@H](CC(C)C)C(=O)N(C)[C@@H](C(C)C)C(=O)N1C", "note": "[SCY-635]", "values": [
      {"measurement": "IC50", "setting": "replicon", "value": 140, "unit": "nM"}
    ]},
    {"compound": "COc1ccc2c(O[C@@H]3C[C@H]4C(=O)N[C@]5(C(=O)NS(=O)(=O)C6CC6)C[C@H]5/C=C\\CCCCN(C)C(=O)[C@@H]4C3)cc(-c3nc(C(C)C)cs3)nc2c1C", "note": "[TMC435]", "values": [
      {"measurement": "IC50", "setting": "protease", "value": 13, "unit": "nM"}
    ]},
    {"compound": "LREEVSFRVGLHEYPVGSQLPCEP EPDVAVLTSM [C34]", "values": [
      {"measurement": "cell viability by MTT on peptide expression", "setting": "Huh-7.5 cells; expressed from construct, data not shown", "value": "no effect"},
      {"measurement": "effect of expressed peptide on NS5A-augmented IRES-mediated translation", "setting": "[3]; 293T cells transfected with IRES reporter, NS5A or GFP, and peptide construct, 48 hours post transfection", "value": "block; also recorded: suppresses"}
    ]},
    {"compound": "R-(Ahx-R)6—CONH2 [arginine tag control peptide, reference compound]", "values": [
      {"measurement": "effect on intracellular viral protein production", "setting": "[2]; peptide added to Huh-7.5 cells without transfection reagent, immediately infected with Renilla reporter virus, assayed 24 hours post infection", "value": "did not show any effect"},
      {"measurement": "effect of peptide treatment on NS5A-augmented IRES-mediated translation", "setting": "[3]", "value": "fail to produce similar results"}
    ]}
  ]
}
